Assays:
[1] = tested on: Akt phosphorylation in HUVECs; assay: Akt phosphorylation western blot; type: cell-based, human; settings: wortmannin 100 µM or H-89 20 µM, 30 mins, then TNF-α 10 ng/ml 30 mins
Description: Nuclear and cytoplasmic extracts were fractionated on SDS-PAGE with equal amount of proteins per well and transferred onto PVDF membranes and those membranes were incubated with appropriate primary antibodies and treated with HRP conjugated secondary antibodies followed by detection with DAB-H2O2 system. β-tubulin, α-actin and Lamin B1 were used as loading controls. Antibodies against NF-κBp65, phosphoNF-κBp65, IκBα, phosphoIκBα, IKK-β, Akt, phosphoAkt (Ser473) and phosphoAkt (Thr308) were used.

[2] = tested on: NF-κB DNA-binding activity in HUVECs; assay: NF-κB activation assay (EMSA) in nuclear extracts; type: cell-based, human; settings: wortmannin 100 µM or H-89 20 µM, 30 mins, then TNF-α 10 ng/ml
Description: The endothelial cells were subjected to the indicated treatments followed by induction with TNF-α for indicated time points or 30 mins. The cells were then washed with PBS and dislodged using a cell scraper. The cytoplasmic and nuclear extracts were prepared as described previously, [46].
NF-κB activation in the nuclear extracts of human endothelial cells was assessed by electrophoretic mobility shift assay (EMSA) as described previously, [46]. For supershift experiment, nuclear extracts prepared from unstimulated and TNF-α-stimulated cells were incubated with antibodies against the p50 or p65 subunit of NF-κB or -α-tubulin for 15 mins at 37°C before the complex was analyzed by EMSA. Addition of equal amount of radioactive-labelled probe to all the samples was indicated by the similar intensity of the unincorporated probe observed towards the end of the gel.

PKA = target: T1, PKA (Homo sapiens, UniProt P17612); assay: PKA activity assay; type: cell-based
T1 construct: PKA was immunoprecipitated from the total cell lysates of unstimulated and TNF-α-stimulated endothelial cells; endogenous in cells; host or cells: HUVEC (treated with MPTAG, SQ 22536, H-89 ± TNF-α), anti-PKAα immunoprecipitate
Description: PKA was immunoprecipitated from the total cell lysates of unstimulated and TNF-α-stimulated endothelial cells in presence and absence of treatment with agents indicated in Figure 7 using anti-PKAα (W-18) antibody. The immunoprecipates were subjected to kinase activity assay using a Bisamide Rhodamine 110 peptide substrate as per the instructions of the Profluor PKA assay kit (Promega, USA).

[3] = tested on: TNF-α-induced VCAM-1 expression on human endothelial cells; set-up: method as in PMID 21315792; settings: dose-dependent; cited from earlier work
[4] = tested on: TNF-α-induced ICAM-1 expression on human endothelial cells; set-up: method as in PMID 21315792; settings: dose-dependent; cited from earlier work
[5] = tested on: adhesion of neutrophils to the endothelium monolayer; set-up: method as in PMID 21315792; settings: dose-dependent; cited from earlier work
[6] = tested on: TNF-α-induced E-selectin expression on human endothelial cells; set-up: method as in PMID 21315792; settings: dose-dependent; cited from earlier work
PI-3K = PI-3K activity assay; type: cell-based, human; settings: pretreatment, HUVECs
Description: The catalytic domain of PI-3K was immunoprecipitated from the stimulated and unstimulated endothelial in presence and absence of various compound treatment using an anti-p85α (N-18) antibody. The immunoprecipated proteins were subjected to kinase activity assay using a PI substrate, diC8 followed by detection of the PI(3)P as per the instructions of the Class III PI-3kinase kit (Echelon, USA).

**Q.** Which results are given for `O=S(=O)(NCCNC/C=C/c1ccc(Br)cc1)c1cccc2cnccc12` [H-89, reference compound]?
**A.** TNF-α-induced Akt phosphorylation (Thr308), kinase inhibitor alone [1]: enhanced; TNF-α-induced NF-κB activation (EMSA), kinase inhibitor alone [2]: enhanced; PKA activity (PKA; H-89 treatment, even in presence of MPTAG): inhibited

**Q.** Which results are given for `Cc1occc(=O)c1O[C@@H]1O[C@H](CO)[C@@H](O)[C@H](O)[C@H]1O` [MPG, 2-methyl-pyran-4-one-3-O-β-D-glucopyranoside]?
**A.** inhibition of TNF-α-induced VCAM-1 expression [3]: inhibited; inhibition of TNF-α-induced ICAM-1 expression [4]: inhibited; inhibition of adhesion of neutrophils to the endothelium monolayer [5]: inhibited; inhibition of TNF-α-induced E-selectin expression [6]: inhibited

**Q.** For `Nc1ncnc2c1ncn2C1CCCO1` (centres unmarked) [SQ 22536, reference compound], which “PKA activity in unstimulated HUVECs” value (PKA; SQ 22536 treatment alone) is on record?
**A.** moderately suppressed

**Q.** Which results are given for `COC[C@H]1OC(=O)c2coc3c2[C@@]1(C)C1=C(C3=O)[C@@H]2CCC(=O)[C@@]2(C)C[C@H]1OC(C)=O` [wortmannin, Wortmannin, reference compound]?
**A.** TNF-α-induced PI-3K activity (PI-3K): abolished; TNF-α-induced Akt phosphorylation (Thr308), kinase inhibitor alone [1]: inhibited; TNF-α-induced NF-κB activation (EMSA), kinase inhibitor alone [2]: inhibited

— publication PMC3465347, “Regulation of NF-κB Activation through a Novel PI-3K-Independent and PKA/Akt-Dependent Pathway in Human Umbilical Vein Endothelial Cells” (PLoS ONE, 2012)
